Assay results from US20240334931A1, “NEMATICIDAL COMPOSITION” (ISHIHARA SANGYO KAISHA, LTD., priority 2021, published 2024).

What was measured:
[1] = system: southern root-knot nematode (Meloidogyne incognita); experiment: Test on effects against southern root-knot nematode: treated contaminated soil, cucumber pot test (Test Example 1 and Comparative Test); assay type: in vivo; parameters: key: 0: No knot formed on the root at all; 1: Knots formed to a slight degree; 2: Knots formed to a moderate degree; 3: Knots formed to a heavy degree; 4: Knots formed to the heaviest degree
Procedure: The treated soil was put into a pot, three cucumber seeds were sown, and the pot was placed in a greenhouse. Two to three weeks after the sowing of the cucumber seeds, the root knot index was determined based on the degree of formation of root knots shown in Table 5. Each composition containing Compound No. […]-192 or B-196 at a concentration of 400 ppm and the composition containing Compound No. […] [table] […] Root knot index of 2 corresponds to a state where the proportion of healthy roots is 50% or less to the entire roots, and indicates control effects to such an extent that cucumber as a crop plant to be tested cannot healthily grow.

[2] = system: soybean cyst nematode (Heterodera glycines); experiment: Test on effects against soybean cyst nematode: treated contaminated soil, soybean pot test (Test Example 3); assay type: in vivo; parameters: key: 0: No parasitic cyst observed on the roots at all; 1: Parasitic cyst observed to a slight degree; 2: Parasitic cyst observed to a moderate degree; 3: Parasitic cyst observed to a heavy degree; 4: Parasitic cyst observed densely on the entire roots; conditions: 800 ppm, 10 ml poured to 200 ml contaminated soil, about one month after sowing
Procedure: . The treated soil was put into a pot, three soybean seeds were sown, and the pot was placed in a greenhouse. About one month after the sowing of the soybean seeds, the parasite index was determined based on the cyst parasite level on the roots shown in Table 7.

[3] = 400 ppm, 10 ml poured to 200 ml contaminated soil, cucumber, two to three weeks after sowing
[4] = Comparative Test, active ingredient concentration 50 ppm, otherwise as Test Example 1 (cucumber)

SMILES | root knot index [1, 3] | other results
O=CNN=C(c1ccccc1)C1(n2cnc(C(F)(F)F)n2)CC1 (single isomer, unassigned) [B-3] | 1 | parasite index [2]: 1
O=CNN=C(c1ccc(Cl)cc1)C1(n2ccc(C(F)(F)F)n2)CC1 (single isomer, unassigned) [B-87] | 1 | 
O=CNN=C(c1ccc(F)cc1)C1(n2ccc(C(F)(F)F)n2)CC1 (single isomer, unassigned) [B-105] | 1 | 
CC(C)(C(=NNC=O)c1ccc(Cl)cc1)n1cnc(C(F)(F)F)n1 [A-90] | 1 | 
CN(C=O)N=C(c1ccc(Cl)cc1)C(C)(C)n1ccc(C(F)(F)F)n1 [A-91] |  | parasite index [2]: 1
CN(C=O)N=C(c1ccc(Cl)cc1)C(C)(C)n1cnc(C(F)(F)F)n1 [A-94] | 1 | 
CCN(C=O)N=C(c1ccc(Cl)cc1)C(C)(C)n1cnc(C(F)(F)F)n1 [A-95] | 1 | 
CCCN(C=O)N=C(c1ccc(Cl)cc1)C(C)(C)n1cnc(C(F)(F)F)n1 [A-96] | 1 | 
COCN(C=O)N=C(c1ccc(F)cc1)C(C)(C)n1ccc(C(F)(F)F)n1 [A-109] |  | parasite index [2]: 1
CC(C)(C(=NNC=O)c1ccccc1Cl)n1ccc(C(F)(F)F)n1 [A-150] | 1 | 
CC(C)(C(=NNC=O)c1ccccc1Cl)n1cnc(C(F)(F)F)n1 [A-151] | 1 | 
CC(C)(C(=NNC=O)c1ccccc1F)n1ccc(C(F)(F)F)n1 [A-152] | 1 | 
CC(C)(C(=NNC=O)c1ccccc1F)n1cnc(C(F)(F)F)n1 [A-153] |  | root knot index ([1]; 200 ppm, 10 ml poured to 200 ml contaminated soil, cucumber, two to three weeks after sowing): 1
CC(C)(C(=NNC=O)c1ccc(F)cc1F)n1ccc(C(F)(F)F)n1 [A-156] | 1 | 
CC(C)(C(=NNC=O)c1ccc(F)cc1F)n1cnc(C(F)(F)F)n1 [A-157] | 1 | 
CC(C)(C(=NNC=O)c1c(F)cccc1F)n1ccc(C(F)(F)F)n1 [A-160] | 1 | 
CC(C)(C(=NNC=O)c1c(F)cccc1F)n1cnc(C(F)(F)F)n1 [A-161] | 1 | 
CCN(C=O)N=C(c1ccccc1Cl)C(C)(C)n1ccc(C(F)(F)F)n1 [A-193] | 1 | 
C#CCN(C=O)N=C(c1ccccc1Cl)C(C)(C)n1ccc(C(F)(F)F)n1 [A-195] | 1 | 
CC(C)(C(=NNC=O)c1ccccc1Cl)n1cnc(C(F)F)n1 [A-198] | 1 | 
CC(C)(C(=NNC=O)c1ccccc1Cl)n1ccc(Cl)n1 [A-199] | 1 | 

SMILES | root knot index [1, 3] | other results
CC(C)(C(=NNC=O)c1ccccc1Cl)n1cnc(Cl)n1 [A-200] | 1 | 
CC(C)(C(=NNC=O)c1ccccc1Cl)n1ccc(Br)n1 [A-201] | 1 | 
CC(C)(C(=NNC=O)c1ccccc1Cl)n1cnc(Br)n1 [A-202] | 1 | 
CC(C)(C(=NNC=O)c1ccccc1Cl)n1ccc(I)n1 [A-203] | 1 | 
CC(C)(C(=NNC=O)c1ccccc1Cl)n1ccc([N+](=O)[O-])n1 [A-205] | 1 | 
CC(C)(C(=NNC=O)c1ccccc1Cl)n1cnc([N+](=O)[O-])n1 [A-206] | 1 | 
CC(C)(C(=NNC=O)c1ccccc1Cl)n1cc(C(F)(F)F)cn1 [A-216] | 1 | 
CC(C)(C(=NNC=O)c1ccccc1Cl)n1cc(F)cn1 [A-217] | 1 | 
CC(C)(C(=NNC=O)c1ccccc1Cl)n1nc(Br)nc1Br [A-224] | 1 | 
CC(C)(C(=NNC=O)c1ccccc1Br)n1ccc(C(F)(F)F)n1 [A-233] | 1 | 
COCN(C=O)N=C(c1ccccc1Br)C(C)(C)n1ccc(C(F)(F)F)n1 [A-235] | 1 | 
CC(C)(C(=NNC=O)c1ccccc1I)n1ccc(C(F)(F)F)n1 [A-240] | 1 | 
CC(C)(C(=NNC=O)c1ccccc1I)n1cnc(C(F)(F)F)n1 [A-241] | 1 | 
Cc1ccccc1C(=NNC=O)C(C)(C)n1ccc(C(F)(F)F)n1 [A-244] | 1 | 
Cc1ccccc1C(=NNC=O)C(C)(C)n1cnc(C(F)(F)F)n1 [A-245] | 1 | 
Cc1ccccc1C(=NNC=O)C(C)(C)n1ccc(Cl)n1 [A-247] | 1 | 
Cc1ccccc1C(=NNC=O)C(C)(C)n1cnc(Cl)n1 [A-248] | 1 | 
Cc1ccccc1C(=NNC=O)C(C)(C)n1ccc(Br)n1 [A-249] | 1 | 
Cc1ccccc1C(=NNC=O)C(C)(C)n1ccc([N+](=O)[O-])n1 [A-251] | 1 | 
Cc1ccccc1C(=NNC=O)C(C)(C)n1cnc([N+](=O)[O-])n1 [A-252] | 1 | 
Cc1ccccc1C(=NNC=O)C(C)(C)n1ccc(C#N)n1 [A-253] | 1 | 

SMILES | root knot index [1, 3] | other results
Cc1ccccc1C(=NNC=O)C(C)(C)n1cc(F)cn1 [A-255] | 1 | 
Cc1ccccc1C(=NNC=O)C(C)(C)n1cc([N+](=O)[O-])cn1 [A-256] | 1 | 
Cc1ccccc1C(=NNC=O)C(C)(C)n1cc(C#N)c(C(F)(F)F)n1 [A-257] | 1 | 
CC(C)(C(=NNC=O)c1ccccc1C(F)(F)F)n1cnc(C(F)(F)F)n1 [A-261] | 1 | 
COc1ccccc1C(=NNC=O)C(C)(C)n1ccc(C(F)(F)F)n1 [A-264] | 1 | 
COc1ccccc1C(=NNC=O)C(C)(C)n1cnc(C(F)(F)F)n1 [A-265] | 1 | 
CC(C)(C(=NNC=O)c1ccccc1OC(F)(F)F)n1ccc(C(F)(F)F)n1 [A-270] | 1 | 
CC(C)(C(=NNC=O)c1ccccc1OC(F)(F)F)n1ccc(Br)n1 [A-272] | 1 | 
CC(C)(C(=NNC=O)c1ccccc1OC(F)(F)F)n1cnc(C#N)n1 [A-273] | 1 | 
CC(C)(C(=NNC=O)c1cccc(F)c1)n1cnc(C(F)(F)F)n1 [A-275] | 1 | 
CC(C)(C(=NNC=O)c1cccc(F)c1)n1ccc(Cl)n1 [A-277] | 1 | 
CC(C)(C(=NNC=O)c1cccc(F)c1)n1cnc(Cl)n1 [A-278] | 1 | 
Cc1cccc(C(=NNC=O)C(C)(C)n2ccc(Cl)n2)c1 [A-324] | 1 | 
CC(C)(C(=NNC=O)c1cccc(C(F)(F)F)c1)n1cnc(C(F)(F)F)n1 [A-327] | 1 | 
COc1cccc(C(=NNC=O)C(C)(C)n2cnc(C(F)(F)F)n2)c1 [A-329] | 1 | 
COc1cccc(C(=NNC=O)C(C)(C)n2ccc(Cl)n2)c1 [A-330] | 1 | 
CC(C)(C(=NNC=O)c1cccc(Cl)c1Cl)n1ccc(C(F)(F)F)n1 [A-332] | 1 | 
CC(C)(C(=NNC=O)c1cc(Cl)ccc1Cl)n1ccc(C(F)(F)F)n1 [A-334] | 1 | 
CC(C)(C(=NNC=O)c1cc(Cl)ccc1Cl)n1cnc(C(F)(F)F)n1 [A-335] | 1 | 
CC(C)(C(=NNC=O)c1cccc(F)c1F)n1ccc(C(F)(F)F)n1 [A-336] | 1 | 
CC(C)(C(=NNC=O)c1cccc(F)c1F)n1cnc(C(F)(F)F)n1 [A-337] | 1 | 

SMILES | root knot index [1, 3] | other results
CC(C)(C(=NNC=O)c1ccc(F)cc1F)n1ccc(Cl)n1 [A-344] | 1 | 
CC(C)(C(=NNC=O)c1cccc(F)c1Cl)n1ccc(C(F)(F)F)n1 [A-349] | 1 | 
CC(C)(C(=NNC=O)c1cccc(F)c1Cl)n1cnc(C(F)(F)F)n1 [A-350] | 1 | 
CC(C)(C(=NNC=O)c1cc(F)ccc1Cl)n1ccc(C(F)(F)F)n1 [A-351] | 1 | 
CC(C)(C(=NNC=O)c1cccc2c1OC(F)(F)O2)n1ccc(C(F)(F)F)n1 [A-410] | 1 | 
CC(C)(C(=NNC=O)c1cccc2c1OC(F)(F)O2)n1ccc(Cl)n1 [A-412] | 1 | 
CC(C)(C(=NNC=O)c1cccc2c1OC(F)(F)O2)n1cnc(Cl)n1 [A-413] | 1 | 
CC(C)(C(=NNC=O)c1cccc2c1OC(F)(F)O2)n1ccc(Br)n1 [A-414] | 1 | 
CC(C)(C(=NNC=O)c1cccc2c1OC(F)(F)O2)n1cnc(C#N)n1 [A-417] | 1 | 
CC(C)(C(=NNC=O)c1cccc2c1OC(F)(F)O2)n1cnc([N+](=O)[O-])n1 [A-419] | 1 | 
CC(C)(C(=NNC=O)c1cccc2c1OC(F)(F)O2)n1cnc(C(F)F)n1 [A-424] | 1 | 
CSc1ccn(C(C)(C)C(=NNC=O)c2cccc(F)c2)n1 [A-430] | 1 | 
CN(C=O)N=C(c1ccccc1)C1(n2cnc(C(F)(F)F)n2)CC1 [B-6] |  | parasite index [2]: 1
COCN(C=O)N=C(c1ccccc1)C1(n2cnc(C(F)(F)F)n2)CC1 [B-24] |  | parasite index [2]: 1
O=CNN=C(c1ccccc1)C1(n2ccc(C(F)(F)F)n2)CCC1 [B-81] | 1 | 
O=CNN=C(c1ccccc1Cl)C1(n2ccc(C(F)(F)F)n2)CC1 [B-148] | 1 | 
CC(C(=NNC=O)c1ccccc1)n1ccc(C(F)(F)F)n1 (centres unmarked) [Compound A-1 (WO2020/ 179910), reference compound] |  | root knot index [1, 4]: 2
CC(C(=NNC=O)c1ccccc1)n1cnc(C(F)(F)F)n1 (centres unmarked) [Compound A-3 (WO2020/ 179910), reference compound] |  | root knot index [1, 4]: 2
CC(C(=NNC=O)c1cccc(Cl)c1)n1ccc(C(F)(F)F)n1 (centres unmarked) [Compound A-58 (WO2020/ 179910), reference compound] |  | root knot index [1, 4]: 2
